Patent US3981999A, “Fish disease treatment” (Dainippon Pharmaceutical Co., Ltd., priority 1973, dated 1976)

Columns and labels:
[1] = tested on: Aeromonas liquefaciens Y-62; assay: Bathing effect against Aeromonas infection in goldfish; format: in vivo; conditions: for Percent survival: 5 days; for Number of survival after 1 day / Number of survival after 2 days / Number of survival after 3 days / Number of survival after 4 days / Number of survival after 5 days: day 0: 6 fish
Description: Goldfish each weighing about 8 g were infected intramuscularly with Aeromonas liquefaciens Y-62 (10^7 germs/fish) under ether anesthesia. The fish were grouped and each group was placed in 6 liters of fresh water (23° to 27°C.) containing PA in the amount indicated in Table 3.
Then, observation was made for the following 5 days. In the same manner, the control group was placed in 6 liters of fresh water without any test compound incorporated in it.

[2] = tested on: Aeromonas liquefaciens Y-62; assay: Oral administration to eels starting the day before Aeromonas infection; format: in vivo, eels (Anguilla Japonica); conditions: oral 1.56 mg/kg/day for 2 days starting the day before infection; seventh day
Description: Groups of eels (Anguilla Japonica, average weight 100 g) (each group consisting of 50 fish) were infected intramuscularly with Aeromonas liquefaciens Y-62 (10^9 germs/fish). For 2 days starting at the day before infection, a suspension consisting of a diet containing PA was orally administered to the eels using a catheter at a dose of 1.56 mg/kg/day. On the seventh day after the infection, the eels were observed.
During the experimental period, the temperature of the water was maintained at 25° to 26°C.

eels = assay: Oral toxicity in eels; format: in vivo, eels (Anguilla Japonica); conditions: oral 2000 mg/kg, 7 days, 10 eels per group, 27° to 27.5°C
Description: A suspension of PA in 0.2% carboxymethylcellulose was orally given to groups each consisting of 10 eels (Anguilla Japonica, about 160 g) and observation was made for the following 7 days. The temperature of the water was kept at 27° to 27.5°C.

SMILES: CCn1cc(C(=O)O)c(=O)c2cnc(N3CCCC3)nc21 [PA, 5,8-dihydro-2-pyrrolidino-8-ethyl-5-oxopyrido[2,3-d]pyrimidine-6-carboxylic acid]
- Percent survival ([1]; bathing conc. 0.5 μg/ml): 100%
- Number of survival after 1 day ([1]; bathing conc. 0.5 μg/ml): 6
- Number of survival after 2 days ([1]; bathing conc. 0.5 μg/ml): 6
- Number of survival after 3 days ([1]; bathing conc. 0.5 μg/ml): 6
- Number of survival after 4 days ([1]; bathing conc. 0.5 μg/ml): 6
- Number of survival after 5 days ([1]; bathing conc. 0.5 μg/ml): 6
- Percent survival ([1]; bathing conc. 1 μg/ml): 100%
- Number of survival after 1 day ([1]; bathing conc. 1 μg/ml): 6
- Number of survival after 2 days ([1]; bathing conc. 1 μg/ml): 6
- Number of survival after 3 days ([1]; bathing conc. 1 μg/ml): 6
- Number of survival after 4 days ([1]; bathing conc. 1 μg/ml): 6
- Number of survival after 5 days ([1]; bathing conc. 1 μg/ml): 6
- eels survived [2]: 80%
- survival and external appearance (eels): All eels survived without abnormality of their external appearance
